# The supplement of paper PMC10307832
# Tests used:
# Assay in all cases: relative viability (nuclei count vs DMSO), 5 days (fraction); higher = more cells survive
# [1] = test system: 201T
# Outline: (§1)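 Five library-drug doses in √10 steps were combined with a fixed anchor-drug dose, or a single drug was given alone, by pin tool to lung cancer cell lines in 1536-well plates the day after seeding. Nuclei were stained and counted after 5 days. Relative viability is the nuclei count in treated wells over that in vehicle wells, taken as the median of duplicate plates.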
# [2] = test system: NCI-H441
# Outline: as §1
# [3] = test system: NCI-H838
# Outline: as §1
# [4] = test system: HCC-366
# Outline: as §1
# [5] = test system: CAL-12T
# Outline: as §1
# [6] = test system: EKVX
# Outline: as §1
# [7] = test system: LK-2
# Outline: as §1
# [8] = test system: ABC-1
# Outline: as §1
# [9] = test system: LU99A
# Outline: as §1
# [10] = test system: COR-L 105
# Outline: as §1
# [11] = test system: HARA
# Outline: as §1
# [12] = test system: NCI-H727
# Outline: as §1
# [13] = test system: NCI-H661
# Outline: as §1
# [14] = test system: NCI-H2170
# Outline: as §1
# [15] = test system: NCI-H2009
# Outline: as §1
# [16] = test system: PC-14
# Outline: as §1
# [17] = test system: NCI-H3122
# Outline: as §1
# [18] = test system: COR-L23
# Outline: as §1
# [19] = test system: NCI-H1666
# Outline: as §1
# [20] = test system: SW 900
# Outline: as §1
# [21] = test system: BEN
# Outline: as §1
# [22] = test system: NCI-H1650
# Outline: as §1
# [23] = test system: NCI-H1437
# Outline: as §1
smiles,measurement,setting,value
CC1(C)CCC(c2ccc(Cl)cc2)=C(CN2CCN(c3ccc(C(=O)NS(=O)(=O)c4ccc(N[C@H](CCN5CCOCC5)CSc5ccccc5)c(S(=O)(=O)C(F)(F)F)c4)cc3)CC2)C1 [Navitoclax] + COc1cc2c(Oc3ccc(NC(=O)C4(C(=O)Nc5ccc(F)cc5)CC4)cc3F)ccnc2cc1OCCCN1CCOCC1 [Foretinib] (partner 0.25 µM),relative viability,[1]; first compound 0.005 µM,1.2
same,relative viability,[1]; first compound 0.01581 µM,1.43
same,relative viability,[1]; first compound 0.05 µM,1.06
same,relative viability,[1]; first compound 0.1581 µM,1.12
same,relative viability,[1]; first compound 0.5 µM,1.03
same,relative viability,[2]; first compound 0.005 µM,0.958
same,relative viability,[2]; first compound 0.01581 µM,1.05
same,relative viability,[2]; first compound 0.05 µM,1.05
same,relative viability,[2]; first compound 0.1581 µM,0.945
same,relative viability,[2]; first compound 0.5 µM,0.948
same,relative viability,[3]; first compound 0.005 µM,0.976
same,relative viability,[3]; first compound 0.01581 µM,1.09
same,relative viability,[3]; first compound 0.05 µM,1.19
same,relative viability,[3]; first compound 0.1581 µM,1.01
same,relative viability,[3]; first compound 0.5 µM,1.03
same,relative viability,[4]; first compound 0.005 µM,0.98
same,relative viability,[4]; first compound 0.01581 µM,0.82
same,relative viability,[4]; first compound 0.1581 µM,1
same,relative viability,[4]; first compound 0.5 µM,0.982
same,relative viability,[5]; first compound 0.005 µM,1.08
same,relative viability,[5]; first compound 0.01581 µM,1.17
same,relative viability,[5]; first compound 0.05 µM,1.16
same,relative viability,[5]; first compound 0.1581 µM,1.11
same,relative viability,[5]; first compound 0.5 µM,1.11
same,relative viability,[6]; first compound 0.005 µM,1.02
same,relative viability,[6]; first compound 0.01581 µM,1.01
same,relative viability,[6]; first compound 0.05 µM,0.544
same,relative viability,[6]; first compound 0.1581 µM,0.8
same,relative viability,[6]; first compound 0.5 µM,0.629
same,relative viability,[7]; first compound 0.005 µM,1.22
same,relative viability,[7]; first compound 0.01581 µM,1.15
same,relative viability,[7]; first compound 0.05 µM,0.645
same,relative viability,[7]; first compound 0.1581 µM,1.24
same,relative viability,[7]; first compound 0.5 µM,1.08
same,relative viability,[8]; first compound 0.005 µM,1.32
same,relative viability,[8]; first compound 0.01581 µM,1.17
same,relative viability,[8]; first compound 0.05 µM,1.12
same,relative viability,[8]; first compound 0.1581 µM,1.07
same,relative viability,[8]; first compound 0.5 µM,1.05
same,relative viability,[9]; first compound 0.005 µM,0.796
same,relative viability,[9]; first compound 0.01581 µM,0.886
same,relative viability,[9]; first compound 0.05 µM,0.459
same,relative viability,[9]; first compound 0.1581 µM,0.804
same,relative viability,[9]; first compound 0.5 µM,0.799
same,relative viability,[10]; first compound 0.005 µM,1.17
same,relative viability,[10]; first compound 0.01581 µM,1.46
same,relative viability,[10]; first compound 0.05 µM,1.31
same,relative viability,[10]; first compound 0.1581 µM,0.865
same,relative viability,[10]; first compound 0.5 µM,0.979
same,relative viability,[11]; first compound 0.005 µM,0.923
same,relative viability,[11]; first compound 0.01581 µM,1.05
same,relative viability,[11]; first compound 0.1581 µM,0.877
same,relative viability,[11]; first compound 0.5 µM,0.863
same,relative viability,[12]; first compound 0.005 µM,1.12
same,relative viability,[12]; first compound 0.01581 µM,0.902
same,relative viability,[12]; first compound 0.1581 µM,0.829
same,relative viability,[12]; first compound 0.5 µM,0.858
same,relative viability,[13]; first compound 0.005 µM,0.984
same,relative viability,[13]; first compound 0.01581 µM,1.06
same,relative viability,[13]; first compound 0.05 µM,0.87
same,relative viability,[13]; first compound 0.1581 µM,0.988
same,relative viability,[13]; first compound 0.5 µM,1
same,relative viability,[14]; first compound 0.005 µM,0.969
same,relative viability,[14]; first compound 0.01581 µM,1.02
same,relative viability,[14]; first compound 0.05 µM,1.08
same,relative viability,[14]; first compound 0.1581 µM,1.07
same,relative viability,[14]; first compound 0.5 µM,0.955
same,relative viability,[15]; first compound 0.005 µM,1.22
same,relative viability,[15]; first compound 0.01581 µM,1.29
same,relative viability,[15]; first compound 0.05 µM,1.26
same,relative viability,[15]; first compound 0.1581 µM,1.26
same,relative viability,[15]; first compound 0.5 µM,1.27
same,relative viability,[16]; first compound 0.005 µM,0.898
same,relative viability,[16]; first compound 0.01581 µM,0.981
same,relative viability,[16]; first compound 0.05 µM,1.27
same,relative viability,[16]; first compound 0.1581 µM,0.941
same,relative viability,[16]; first compound 0.5 µM,0.838
same,relative viability,[17]; first compound 0.005 µM,0.936
same,relative viability,[17]; first compound 0.01581 µM,1.04
same,relative viability,[17]; first compound 0.05 µM,0.964
same,relative viability,[17]; first compound 0.1581 µM,0.934
same,relative viability,[17]; first compound 0.5 µM,0.966
same,relative viability,[18]; first compound 0.005 µM,0.957
same,relative viability,[18]; first compound 0.01581 µM,1.13
same,relative viability,[18]; first compound 0.05 µM,1.02
same,relative viability,[18]; first compound 0.1581 µM,0.938
same,relative viability,[18]; first compound 0.5 µM,0.947
same,relative viability,[19]; first compound 0.005 µM,0.941
same,relative viability,[19]; first compound 0.01581 µM,1.04
same,relative viability,[19]; first compound 0.05 µM,0.965
same,relative viability,[19]; first compound 0.1581 µM,0.998
same,relative viability,[19]; first compound 0.5 µM,0.964
same,relative viability,[20]; first compound 0.005 µM,0.857
same,relative viability,[20]; first compound 0.01581 µM,1.04
same,relative viability,[20]; first compound 0.05 µM,0.819
same,relative viability,[20]; first compound 0.1581 µM,0.643
same,relative viability,[20]; first compound 0.5 µM,0.85
same,relative viability,[21]; first compound 0.005 µM,0.69
same,relative viability,[21]; first compound 0.01581 µM,0.664
same,relative viability,[21]; first compound 0.05 µM,0.604
same,relative viability,[21]; first compound 0.1581 µM,0.719
same,relative viability,[21]; first compound 0.5 µM,0.114
same,relative viability,[22]; first compound 0.005 µM,1.08
same,relative viability,[22]; first compound 0.01581 µM,1.48
same,relative viability,[22]; first compound 0.05 µM,1.12
same,relative viability,[22]; first compound 0.1581 µM,1.28
same,relative viability,[22]; first compound 0.5 µM,0.953
same,relative viability,[23]; first compound 0.005 µM,1.18
same,relative viability,[23]; first compound 0.01581 µM,1.3
same,relative viability,[23]; first compound 0.05 µM,1.1
same,relative viability,[23]; first compound 0.1581 µM,1.31
same,relative viability,[23]; first compound 0.5 µM,1.27
